Experimental data as given in ChEMBL document CHEMBL3872242, “Anti-inflammatory tetraquinane diterpenoids from a Crinipellis species” (Bioorg Med Chem, 2017).
Active and inactive are the calls of the source. No cut-off for these calls is given here.

Experiments:
MONO-MAC-6 [1] = assay: Inhibition of human THP1 cells derived IL-8 promoter dependent transcription activity expressed in LPS/INF-gamma stimulated human MONO-MAC-6 cells measured after 4 hrs by luciferase reporter gene assay; assay type: functional, cell-based; settings: MONO-MAC-6, 4 h
[2] = Down regulation of IL-8 mRNA expression in LPS/INF-gamma stimulated human MONO-MAC-6 cells at 16.54 uM preincubated for 1 hr followed by LPS/INF-gamma stimulation measured after 4 hrs by quantitative RT-PCR analysis; assay type: functional, cell-based
[3] = Inhibition of NF-kappaB (unknown origin) expressed in LPS/INF-gamma-stimulated human MONO-MAC-6 cells measured after 4 hrs by luciferase reporter gene assay; assay type: cell-based; settings: MONO-MAC-6, 4 h
MONO-MAC-6 [4] = assay: Inhibition of CXCL1 mRNA expression in LPS/INF-gamma stimulated human MONO-MAC-6 cells at 16.54 uM preincubated for 1 hr followed by LPS/INF-gamma stimulation measured after 16 hrs; assay type: functional, cell-based
[5] = Down regulation of TNF-alpha mRNA expression in LPS/INF-gamma stimulated human MONO-MAC-6 cells at 16.54 uM preincubated for 1 hr followed by LPS/INF-gamma stimulation measured after 4 hrs by quantitative RT-PCR analysis; assay type: functional, cell-based
MONO-MAC-6 [6] = assay: Inhibition of IL-6 mRNA expression in LPS/INF-gamma stimulated human MONO-MAC-6 cells at 16.54 uM preincubated for 1 hr followed by LPS/INF-gamma stimulation measured after 16 hrs; assay type: functional, cell-based
MONO-MAC-6 [7] = assay: Inhibition of CCL1 mRNA expression in LPS/INF-gamma stimulated human MONO-MAC-6 cells at 16.54 uM preincubated for 1 hr followed by LPS/INF-gamma stimulation measured after 16 hrs; assay type: functional, cell-based
MONO-MAC-6 [8] = assay: Inhibition of IL-23 mRNA expression in LPS/INF-gamma stimulated human MONO-MAC-6 cells at 16.54 uM preincubated for 1 hr followed by LPS/INF-gamma stimulation measured after 16 hrs; assay type: functional, cell-based
MONO-MAC-6 [9] = assay: Inhibition of TNF-alpha mRNA expression in LPS/INF-gamma stimulated human MONO-MAC-6 cells at 16.54 uM preincubated for 1 hr followed by LPS/INF-gamma stimulation measured after 16 hrs; assay type: functional, cell-based
[10] = Down regulation of IL-6 mRNA expression in LPS/INF-gamma stimulated human MONO-MAC-6 cells at 16.54 uM preincubated for 1 hr followed by LPS/INF-gamma stimulation measured after 4 hrs by quantitative RT-PCR analysis; assay type: functional, cell-based
MONO-MAC-6 [11] = assay: Inhibition of IL-8 mRNA expression in LPS/INF-gamma stimulated human MONO-MAC-6 cells at 16.54 uM preincubated for 1 hr followed by LPS/INF-gamma stimulation measured after 16 hrs; assay type: functional, cell-based
[12] = Inhibition of IRF (unknown origin) expressed in LPS/INF-gamma-stimulated human MONO-MAC-6 cells assessed as reduction in ISRE dependent transcription activity measured after 4 hrs by luciferase reporter gene assay; assay type: cell-based; settings: MONO-MAC-6, 4 h
MONO-MAC-6 [13] = assay: Inhibition of LPS/INF-gamma induced CXCL10 promoter dependent transcription activity in human MONO-MAC-6 cells measured after 4 hrs by luciferase reporter gene assay; assay type: functional
[14] = Down regulation of COX-2 mRNA expression in LPS/INF-gamma stimulated human MONO-MAC-6 cells at 16.54 uM preincubated for 1 hr followed by LPS/INF-gamma stimulation measured after 4 hrs by quantitative RT-PCR analysis; assay type: functional, cell-based
MONO-MAC-6 [15] = assay: Inhibition of CXCL10 mRNA expression in LPS/INF-gamma stimulated human MONO-MAC-6 cells at 16.54 uM preincubated for 1 hr followed by LPS/INF-gamma stimulation measured after 16 hrs; assay type: functional, cell-based
[16] = Down regulation of CCL2 mRNA expression in LPS/INF-gamma stimulated human MONO-MAC-6 cells at 16.54 uM preincubated for 1 hr followed by LPS/INF-gamma stimulation measured after 4 hrs by quantitative RT-PCR analysis; assay type: functional, cell-based
MONO-MAC-6 [17] = assay: Inhibition of CXCL11 mRNA expression in LPS/INF-gamma stimulated human MONO-MAC-6 cells at 16.54 uM preincubated for 1 hr followed by LPS/INF-gamma stimulation measured after 16 hrs; assay type: functional, cell-based
[18] = Cytotoxicity against human MONO-MAC-6 cells up to 50 uM measured after 24 hrs by XTT assay; assay type: toxicity, cell-based; settings: mono-mac-6, 24 h
[19] = Effect on constitutive activity of EF-1alpha expressed in human MONO-MAC-6 cells up to 50 uM measured after 4 hrs by luciferase reporter gene assay; assay type: ADME, cell-based; settings: mono-mac-6, 4 h
[20] = Downregulation of CXCL10 mRNA expression in human MONO-MAC-6 cells at 16.54 uM preincubated for 1 hr followed by LPS/INF-gamma stimulation measured after 4 hrs by quantitative RT-PCR analysis; assay type: functional, cell-based
[21] = Effect on GAPDH mRNA expression in human MONO-MAC-6 cells at 3.31 to 16.54 uM preincubated for 1 hr followed by LPS/INF-gamma stimulation measured after 4 hrs by quantitative RT-PCR analysis; assay type: ADME, cell-based; settings: mono-mac-6, 4 h
MONO-MAC-6 [22] = assay: Inhibition of CCL3 mRNA expression in LPS/INF-gamma stimulated human MONO-MAC-6 cells at 16.54 uM preincubated for 1 hr followed by LPS/INF-gamma stimulation measured after 16 hrs; assay type: functional, cell-based

**Q.** With `C=C[C@H]1CC[C@]23C[C@@H]4[C@H](C)C(=O)[C@H]5O[C@]54[C@@]2(C)C[C@H](O)[C@]13C` as the molecule, how does the IC50 (MONO-MAC-6 [1]) read?
**A.** 1300 to 1500 nM

**Q.** What about the Activity [2] of the same molecule?
**A.** Active

**Q.** What about the IC50 [3] of the same molecule?
**A.** 2700 to 3000 nM

**Q.** And the inhibition (MONO-MAC-6 [4])?
**A.** Active

**Q.** And the Activity [5]?
**A.** Active

**Q.** And the inhibition (MONO-MAC-6 [6])?
**A.** Active

**Q.** And the inhibition (MONO-MAC-6 [7])?
**A.** Active

**Q.** And the inhibition (MONO-MAC-6 [8])?
**A.** Active

**Q.** And the inhibition (MONO-MAC-6 [9])?
**A.** Active

**Q.** What about the Activity [10] of the same molecule?
**A.** Active

**Q.** What about the inhibition (MONO-MAC-6 [11]) of the same molecule?
**A.** Active

**Q.** What about the IC50 [12] of the same molecule?
**A.** 1000 to 1200 nM

**Q.** And the inhibition (MONO-MAC-6 [13])?
**A.** Dose-dependent effect

**Q.** What about the Activity [14] of the same molecule?
**A.** Active

**Q.** What about the inhibition (MONO-MAC-6 [15]) of the same molecule?
**A.** Active

**Q.** What about the Activity [16] of the same molecule?
**A.** Active

**Q.** What about the inhibition (MONO-MAC-6 [17]) of the same molecule?
**A.** Active

**Q.** What about the Activity [18] of the same molecule?
**A.** Non-Toxic

**Q.** What about the Activity [19] of the same molecule?
**A.** Non-Toxic

**Q.** What about the Activity [20] of the same molecule?
**A.** Active

**Q.** What about the Activity [21] of the same molecule?
**A.** Non-Toxic

**Q.** What about the inhibition (MONO-MAC-6 [22]) of the same molecule?
**A.** Active
